# Results from US11638424B2, “Mosquito attractant formulations and uses thereof” (priority 2017, dated 2023).
# What was measured:
# Assay type in all cases: in vivo
# [1] = test system: Plasmodium falciparum (NF54 strain); test: Mosquito infectious feed (P. falciparum oocyst and sporozoite infection in mosquitoes)
# Experimental: A strain of the human malaria parasite P. falciparum, denoted NF54 (T. Ponnudurai, et al., Trop Geogr Med, 33, 50-54 (1981); kindly donated by Klays Berzins, Stockholm University), known to produce gametocytes infectious to mosquitoes (D. Walliker, paper presented at the Symposia on Molecular and Cellular Biology New Series 42, UCLA (1987)), was used for all experimental infections. Parasites were cultured in vitro according to standard protocols (W. Trager and J. B. Jensen, Science, 193, 673-675 (1976)) at 5% haematocrit in complete RPMI-1640 medium with 10% human serum under a gas environment of 1% O2, 3% CO2 and 96% N2 (Labline, Goteborg, Sweden). The culture medium was replaced daily and parasitaemia assessed using Giemsa staining every two days (ibid.). When the parasitaemia reached ˜6% (approximately 2 days after initiating the culture), cultures were diluted with a freshly made 5% haematocrit mixture of RBCs/complete medium. Asexual, synchronised trophozoites were fed to mosquitoes at 5% parasitaemia.
# Plasmodium falciparum gametocyte cultures (NF54 strain) were set up at 0.5-0.7% parasitaemia, 6% haematocrit in complete RPMI medium, according to standard procedures (R. Carter, et al. Methods Mol Biol, 21, 67-88 (1993)). For each infectious feeding, a mixture of gametocytes from 14- and 17-day gametocyte cultures were used (ibid.). On the day of experimental infection, uninfected RBCs were supplemented with P. falciparum gametocytes to a final gametocytaemia of approximately 3%, which is known to generate good infection prevalence (>50% in A. gambiae s.s. mosquitoes; ibid.). To measure the effect of HMBPP on parasite infectiousness, two groups of approximately 210 mosquitoes were fed on mature gametocyte-infected red blood cells (giRBCs) with or without HMBPP using a membrane feeder, as previously described (ibid.). Gametocyte density was kept equal in control and treatments. To give the final gametocytaemia of 3% in each tubes, on the day of feed, the final mature gametocytaemia was calculated in cultures and then the volume of gametocyte inoculum was estimated per 1 ml of blood. The gametocyte inoculum was prepared using an equal volume (˜400 μl) of the gametocyte mixture was added to 1 ml of each of the blood treatments (with/without HMBPP). Adding a fixed volume of well-mixed gametocyte culture to a fixed volume of each blood treatment, it was ensured that parasite density (no. gametocytes per ml) was constant in both groups.
# A. gambiae sensu lato [2] = test: Dual choice attraction bioassay (Y-tube olfactometer); conditions: FIG. 1A
# Experimental: Mosquitoes used in this study were from the laboratory colony of A. gambiae sensu lato (Keele line, University of Glasgow), which was produced by balanced interbreeding of four A. gambiae s.s. strains (H. Hurd, et al. Evolution, 59, 2560-2572 (2005)). Larvae were reared under standard insectary conditions (27±1° C., 70% humidity, 12 h light: 12 h dark cycle) and fed on TetraMin fish flakes (Tetra ltd., Germany). Pupae were transferred into holding cages for emergence. Emerged adults were fed ad libitum on 5% glucose solution, supplemented with 0.05% (w/v) 4-aminobenzoic acid (PABA, Sigma-Aldrich), through soaked filters on top of the 2 ml tubes and with soaked filter pads inside cages. Red blood cells (RBCs) were washed with Roswell Park Memorial Institute (RPMI) medium and stored in RPMI at 50% haematocrit at 4° C. until use. To measure the effect of HMBPP on mosquito fitness, RBCs stored in RPMI were centrifuged at 2500×g for 5 min followed by replacement of the medium with AB serum for a final haematocrit of 40%. HMBPP (stock concentration at 4 mM in Nanopure water, stored at −80° C.) was diluted to 10 μM in 1 ml RBC suspension, and the corresponding volume of Nanopure water was added to the control RBCs. All experiments were, unless otherwise stated, conducted on 5-7 days post-emergence female mosquitoes maintained in separated cages (approximately 210 individuals per cohort) and fed RBCs either with or without HMBPP for 30 min. All experiments were performed in triplicates.
# Initial experiments were performed using a Y-tube olfactometer (length of the central cylinder and two arms: 25/15/15 cm respectively, inner diameter: 5 cm; see FIG. 1a). For each experiment, 180 female mosquitoes were individually placed in a release chamber and flown one by one. Females flew towards the upwind end (airflow 3 L min^−1) and entered one of two trapping chambers through which odour released from nearby membrane feeders passed (5 cm distance to each trapping chamber). Three experiments were conducted. In the first experiment, the membrane feeders were loaded with RBCs with or without HMBPP, while in the second they were loaded with serum with or without HMBPP. The third experiment was performed with a 5% glucose with 0.05% PABA solution with or without HMBPP. To control for possible spatial effects, the location of treatment at each olfactometer arm was switched every 30 minutes (˜15 mosquitoes flied one by one in each 30 minutes). Each replacement (feeder rotation with fresh RBCs) was counted as an experimental replicate (experimental block). Mosquitoes reaching any of the trapping chambers were considered to have made a choice. Each experiment was repeated six times with in total 180 mosquitoes per treatment.
# A. gambiae sensu lato [3] = test: Persistency (landing, probing and initiating feeding) within 5 min on cell-free meals
# Experimental: Fifty mosquitoes were isolated in three separate cages (8 cm internal diameter×10 cm in height) covered with netting, and fed on 1 ml of control RBCs, hRBCs or giRBCs, respectively. […] For each group, the number of fully fed mosquitoes compared to unfed controls was immediately recorded. In another set of feeding experiments, serum or a 0.9% physiological saline solution (NaCl, pH 7.4), either with or without 10 μM HMBPP, were offered to mosquitoes during a 5 min feeding window, and the number of fed mosquitoes recorded every minute for each cage separately. In the saline experiment, an additional treatment of 10 μM IPP in NaCl was included.
# A. gambiae s.l. = test: Olfactometer bioassay (larger Y-tube olfactometer / wind tunnel assay); conditions: larger Y-tube olfactometer, FIG. 2A
# Experimental: Behavioural experiments were performed using different odour sources with and without pulsed CO2 stimuli in a Plexiglas Y shaped olfactometer (9.5 cm i.d.×length of the central cylinder and two arms: 120/120/120 cm respectively), illuminated from above at 280 lx. A charcoal-filtered and humidified air stream (25±2° C., RH 65±2%) passed through stainless steel mesh screens at 30 cm s^−1 to generate a laminar flow in the olfactometer. Odors were introduced into the air stream of each arm at the downwind end. […] Odor sources consisted of either RBC-based treatments or headspace extracts. RBC-based treatments included RBCs alone, hRBCs, giRBCs or ippRBCs (RBCs supplemented with HMBPP, gametocytes or IPP), as well as RBCs with supernatants from gametocyte-infected RBCs, or RBCs supplemented with the synthetic odour blend. Headspace extracts collected from hRBCs and giRBCs were used. Treatments including RBCs were heated to 37° C. prior to being pumped (150 ml min^−1) into the airstream of each arm separately. The blend and headspace extracts were delivered to each arm via a wick dispenser. Carbon dioxide (Strandmöllen) was introduced into a plume generator that was placed behind the metal screens to create a homogenous-pulsed flow, which was regulated by a stimulus controller (SEC-2/b, Syntech, Löptin Germany). […]
smiles,measurement,setting,value
"C/C(=C\COP(=O)(O)OP(=O)(O)O)CO [HMBPP, (E)-4-hydroxy-3-methyl-but-2-enyl pyrophosphate]",oocyst prevalence (proportion of oocyst-carrying mosquitoes),"[1]; giRBCs with additional HMBPP, gametocyte density 3%",~100%
same,sporozoite intensity (number of sporozoites per salivary gland),[1]; giRBCs with vs without HMBPP,significantly higher
same,oocyst intensity (number of oocyst per midgut),"[1]; giRBCs with vs without HMBPP, 10 dpi, FIG. 3D",higher
same,sporozoite prevalence (proportion of sporozoite-carrying mosquitoes),"[1]; giRBCs with vs without HMBPP, 14 dpi, FIG. 3E",significantly higher
same,"oocyst prevalence, difference between treatments",[1]; giRBCs with vs without additional HMBPP,not significantly different
same,host-seeking mosquitoes that chose HMBPP-supplemented RBCs (hRBCs) over RBCs,A. gambiae sensu lato [2]; RBCs with 10 μM HMBPP vs RBCs,95%
same,attraction to HMBPP-supplemented glucose solution,"A. gambiae sensu lato [2]; glucose solution (5%) containing PABA 0.05%, with vs without HMBPP","did not, however, increase attraction"
same,attraction to HMBPP-supplemented serum,A. gambiae sensu lato [2]; serum with vs without HMBPP,"did not, however, increase attraction"
same,persistency / phagostimulatory effect in physiological salt solution,"A. gambiae sensu lato [3]; 0.9% NaCl, 10 μM, 5 min, FIG. 1F",generated a similar effect
same,percent persistency within 5 min (females that landed and initiated probing and feeding),"A. gambiae sensu lato [3]; serum with 10 μM HMBPP (serum alone 20%), FIG. 1E",Approximately 80%
same,attraction of mosquitoes to supplemented RBCs versus RBCs,A. gambiae s.l.,could mimic the attraction of mosquitoes to giRBCs
